Common to all, as to experiment: inhibition of tumour cell growth, NCI panel, 48 h
The test system of assay [1] is BT-549 breast.
The subject of assay [2] is 786-0 renal.
Assay [3] relates to NCI-H23 lung.
In assay [4] the test system is A498 renal.
Assay [5] relates to UO-31 renal.
Assay [6] deals with CAKI-1 renal.
Assay [7] relates to IGROV1 ovarian.
The test system of assay [8] is SF-295 CNS.
Assay [9] deals with CCRF-CEM leukemia.
Assay [10] concerns COLO 205 colon.

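All cell lines were grown in 96-well plates and treated with compound for 48 hours. Here, GI50 denotes the concentration required for 50% inhibition of growth. TGI: total growth inhibition.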

As for `COC(=O)c1cc(=O)[nH]c(=O)[nH]1`, the TGI in [1], in assay [2], in assay [3], in [4], in assay [5] and in [6] was greater than 100 µM each time. The TGI in assay [7] and in assay [8] was greater than 100 µM each time.
For `NS(=O)(=O)c1ccc(/C=C/c2ccc(F)cc2)cc1`, the GI50 in [9] is 62 µM; in [1], 0.205 µM; in assay [3] it was 45.1 µM; in assay [6], 36.3 µM; in [7], 20.9 µM. Moreover, the TGI in assay [9] is greater than 100 µM; in assay [10], greater than 100 µM; in assay [1] it was 4.92 µM; in assay [2], 41.2 µM; in assay [3], greater than 100 µM; in assay [4], greater than 100 µM. The TGI in [5] is 61.1 µM; in assay [6] it was greater than 100 µM; in assay [7], 61.9 µM; in assay [8], 78.6 µM.
As to `CC(C)CNc1nc2ncnc(N)c2[nH]1`, the TGI in [9], in assay [10], in assay [1], in [2], in assay [3] and in assay [4] was greater than 100 µM in each case. The TGI in [5], in [6], in [7] and in [8] was greater than 100 µM throughout.
As to `CN(C)c1ccc(/C(F)=C(F)/C(F)=C(F)/C(F)=C(\F)c2ccc(Br)cc2)cc1`, the TGI in assay [9] was greater than 78.8 µM; in assay [10], 63.2 µM; in [1], greater than 100 µM; in [2], 22.2 µM; in assay [3], 63.4 µM; in assay [4] it was greater than 95.5 µM. In addition, the TGI in assay [5] is greater than 100 µM; in assay [6], greater than 84 µM; in [7] it was greater than 100 µM; in assay [8] it was greater than 52.1 µM.
As to `OCC(O)C(O)C(O)C(O)c1nc2ccc(Cl)cc2[nH]1` (stereo not drawn), the TGI in assay [9], in assay [10], in [1], in [2], in [3] and in [4] was greater than 100 µM in each case. The TGI in assay [5], in assay [6], in assay [7] and in assay [8] was greater than 100 µM each time.
Regarding `O=C(N/N=C/C=C/c1ccc([N+](=O)[O-])o1)c1cc2ccccc2cc1O`, the GI50 in assay [10] is 1.84 µM; in assay [1], 1.3 µM; in [3], 1.02 µM; in assay [4], 2.48 µM; in assay [5], 1.05 µM; in assay [6], 0.933 µM. Also, the GI50 is 0.981 µM in [7] and 3.37 µM in [8]. Also, the TGI in assay [10] was 3.35 µM; in assay [1], 3.02 µM; in assay [3], 2.75 µM; in assay [4], 8.95 µM; in assay [5], 4.06 µM; in [6], 5.02 µM. The TGI in assay [7] was found to be 3.73 µM; in [8], 21.2 µM.
For the molecule `Cc1ccc(OCC2OC(n3cnc4c(Cl)nc(N)nc43)CC2Oc2ccc(C)cc2)cc1` (stereo not drawn), the TGI was greater than 100 µM in assay [9]; 98.2 µM in assay [10]; greater than 100 µM in assay [1]; greater than 100 µM in assay [2]; 49.7 µM in assay [3]; greater than 100 µM in [4]. Besides, the TGI in [5] was 13.3 µM; in assay [6] it was 20.3 µM; in [7], 61.5 µM; in assay [8], greater than 100 µM.
Turning to `COc1ccc2c3c1OC1C(=O)C=CC4(CC2)N(C)CCC314` (stereo not drawn), the TGI is 51.5 µM in [9]; 22.7 µM in assay [10]; 90.8 µM in assay [1]; 63.7 µM in [2]; greater than 100 µM in assay [3]; 58.7 µM in assay [4]. In addition, the TGI in assay [5] is 78.5 µM; in [6], greater than 100 µM; in assay [7] it was greater than 100 µM; in [8], greater than 100 µM.
As for `N#CC1(C#N)NC(c2cccs2)C(C#N)(C#N)NC1c1cccs1` (stereo not drawn), the TGI in assay [9] was 64.3 µM; in assay [10], greater than 100 µM; in [1], 57.4 µM; in [2], greater than 100 µM; in [3] it was greater than 100 µM; in assay [4] it was 74.6 µM. In addition, the TGI in assay [5], in assay [6], in assay [7] and in assay [8] was greater than 100 µM in each case.
As to `CCCCCCCC/C=C\CCCCCCC/C=C1\C[C@](/C=C/C(=O)OC)(CO)OC1=O`, the TGI in assay [9] is greater than 23 µM; in assay [10], 5.02 µM; in [1], 7.15 µM; in assay [2], 3.61 µM; in assay [3], 16.1 µM; in assay [4] it was 22.7 µM. The TGI in assay [5] amounted to 3.76 µM; in assay [6] it was 4.15 µM; in [7] it was 6.29 µM; in assay [8], 14.1 µM.
On to `O=C1C(Cl)=C(OCCCl)C(=O)c2c(O)ccc(O)c21`, for which the TGI in assay [9] was 0.381 µM; in [10], 3.26 µM; in assay [1], 26.9 µM; in assay [2] it was 17.3 µM; in [3], 19.8 µM; in assay [4] it was 34.8 µM. In addition, the TGI in assay [5] worked out at 11 µM; in [6] it was 3.93 µM; in [7] it was 19.7 µM; in assay [8], 33.3 µM.
Regarding `COc1ccc(C2=Nc3cc(C)c(C)cc3NC(c3ccccc3)C2)cc1` (stereo not drawn), the TGI in [9] is greater than 100 µM; in [10], 37.6 µM; in assay [1], greater than 100 µM; in assay [2], greater than 100 µM; in assay [3] it was greater than 100 µM; in assay [4], greater than 100 µM. For the same molecule, the TGI in assay [5], in assay [6], in assay [7] and in [8] was greater than 100 µM each time.
Take `CCOP(=O)(/C=C\n1cc(C)c(=O)[nH]c1=O)OCC`: the TGI in [9], in assay [10], in assay [1], in assay [2], in assay [3] and in [4] was greater than 100 µM each time. For the same molecule, the TGI in [6], in assay [7] and in [8] was greater than 100 µM in each case.
Regarding `CC(=O)OCC1OC(SC2=N/C(=C\c3ccc(Br)s3)C(=O)N2CN2CCOCC2)C(OC(C)=O)C(OC(C)=O)C1OC(C)=O` (stereo not drawn), the TGI in assay [10] worked out at 37.6 µM; in [1], 38.8 µM; in [2] it was 36.5 µM; in assay [3], 27.2 µM; in [4] it was 46 µM; in assay [5], 29.4 µM. Moreover, the TGI was determined as 34.3 µM in assay [6], 46.9 µM in [7] and 52 µM in assay [8].
Turning to `CSCCC(N)C(=O)NCCNc1ccc(NCCNC(=O)C(N)CCSC)c2c1C(=O)c1ccccc1C2=O` (stereo not drawn), the TGI came to 3.13 µM in assay [10]; 2.93 µM in [1]; 1.89 µM in assay [2]; 2.32 µM in assay [3]; 3.83 µM in [4]; 4.39 µM in [5]. In addition, the TGI was 7.25 µM in assay [6], 12.2 µM in [7] and 10.7 µM in [8].
Regarding `Cc1cc(-c2nc3cc(F)ccc3s2)ccc1NC(=O)[C@@H](N)CCCCN`, the TGI in [10] was found to be 9.35 µM; in assay [1], 26.9 µM; in assay [2] it was 7.29 µM; in assay [3] it was 4.93 µM; in [4], 23.9 µM; in [5] it was 13.9 µM. The TGI worked out at 20.3 µM in assay [6], 18.3 µM in [7] and 9.62 µM in assay [8].
For `COc1ccc(N2C(=O)CC(=O)N(C(=O)COc3ccc(OCC(=O)N4C(=O)CC(=O)N(c5ccc(OC)cc5)C4=S)cc3)C2=S)cc1`, the TGI in assay [10] was 39.8 µM; in assay [1], greater than 100 µM; in [2], greater than 100 µM; in assay [3] it was greater than 100 µM; in [4], greater than 100 µM; in [5], greater than 100 µM. Further, the TGI is 30.3 µM in [6], greater than 100 µM in assay [7] and greater than 100 µM in [8].
For `O=c1[nH]nc(-c2ccccc2)n1/N=C\c1ccccc1`, the TGI in assay [9], in [10], in assay [1], in [2], in assay [3] and in [4] was greater than 100 µM throughout. Moreover, the TGI in assay [5], in assay [6] and in [8] was greater than 100 µM each time.
Consider `CC1CCCC2(CC[N+](C)(CCC[N+](C)(C)C)CC2)C1` (stereo not drawn), for which the TGI in [10], in [1], in assay [2], in [4], in assay [5] and in [6] was greater than 100 µM in each case. The TGI in [7] and in [8] was greater than 100 µM each time.
As to `CCNCCCn1c2c(c3ccc(Cl)cc3c1=O)C(=O)c1cc(OC)cnc1-2`, the GI50 in assay [9] is 0.0239 µM; in assay [10], 0.146 µM; in assay [1] it was 0.813 µM; in assay [3], 0.539 µM; in [4] it was 0.358 µM; in [5] it was 0.543 µM. Further, the GI50 in [6] was 0.0472 µM. For the same molecule, the TGI in assay [9] worked out at 1.75 µM; in assay [10], 1.57 µM; in assay [1], 20.3 µM; in [3], 2.47 µM; in assay [4], 4.38 µM; in assay [5], 2.37 µM. Also, the TGI in assay [6] came out at 16.8 µM.
Take `Cc1cc(F)ccc1S(=O)(=O)Nc1cc(-c2c(O)ccc3ccccc23)c(O)c2ccccc12`: the GI50 in [9] was 3.26 µM; in [10], 2.08 µM; in [1], 3.04 µM; in assay [3], 2.77 µM; in assay [4] it was 3 µM; in assay [5], 2.38 µM. Besides, the GI50 in assay [6] is 2.5 µM; in [7] it was 2.89 µM; in assay [8], 3.02 µM. Besides, the TGI in assay [9] worked out at 16.6 µM; in assay [10], 4.94 µM; in assay [1] it was 10.8 µM; in assay [3], 13.3 µM; in assay [4] it was 9.75 µM; in assay [5], 13.3 µM. Further, the values for the TGI in assay [6], in assay [7] and in [8] were 10.9 µM, 8.68 µM and 10.3 µM, respectively.
As to `CCOc1ccc(N/C(=C(/C(Cl)=C(/Cl)N(CC)CC)[N+](=O)[O-])n2nnc3ccccc32)cc1`, the TGI is greater than 100 µM in [9]; 37.2 µM in assay [10]; 49.4 µM in assay [1]; 33.2 µM in [2]; 35 µM in [3]; 73.5 µM in assay [4]. Also, the TGI was 45.2 µM in [5], 26.9 µM in [6] and greater than 100 µM in assay [8].
`CC(NC(=O)C(NC(=O)CNC(=O)OC(C)(C)C)C(C)C)C(=O)Oc1c(Cl)c(Cl)c(Cl)c(Cl)c1Cl` (stereo not drawn): the TGI is greater than 100 µM in assay [9]; 43.2 µM in assay [10]; 51.2 µM in [1]; 29.5 µM in [3]; 45 µM in assay [4]; 29.5 µM in [5]. The results for the TGI in assay [6], in assay [7] and in assay [8] were 39.3 µM, 46.6 µM and 34.3 µM, respectively.
For `Cc1ccc(OCC2OC(n3cnc4nc(N)nc(Cl)c43)CC2Oc2ccc(C)cc2)cc1` (stereo not drawn), the TGI in assay [9] is greater than 100 µM; in assay [10] it was 36.4 µM; in assay [1], greater than 100 µM; in assay [2], greater than 100 µM; in [3] it was 36.9 µM; in [4], 82.3 µM. Moreover, the TGI in [6] worked out at 23.6 µM; in assay [7], 44.8 µM; in [8] it was 84.1 µM.
With `NC(=O)NNc1nc(-c2ccccc2)cs1`, the TGI in assay [9], in assay [10], in assay [1], in assay [2], in [4] and in assay [5] was greater than 100 µM throughout. The TGI in assay [6], in assay [7] and in [8] was greater than 100 µM each time.
In the case of `CO/N=C1\CC(NC(=O)CNC(=O)OC(C)(C)C)c2ccsc21` (stereo not drawn), the TGI in assay [9], in assay [10], in [1], in assay [3], in assay [4] and in assay [5] was greater than 100 µM in each case. Moreover, the TGI in assay [6], in assay [7] and in assay [8] was greater than 100 µM in each case.
